Assay results taken from patent US20040019118A1, “NMDA receptor antagonists and their use in inhibiting abnormal hyperphosphorylation of microtubule associated protein tau” (priority 2002, published 2004).
“Also recorded” adds a separate entry of the source. Where two headings read alike, the source gives them in different places.

Legend:
PP-2A = biological target: T1, PP-2A (Rattus norvegicus, UniProt P63331); test: PP-2A activity in extracts of treated hippocampal slice cultures; format: cell-based
T1 construct: from tissue; host or cells: organotypic culture of adult rat hippocampal slices; 16,000xg extract
Procedure: Organotypic cultures of rat hippocampal slices were prepared from 20-30 day old Wistar rats and cultured with the interface method as described previously (Stoppini, et al. 1991; Bahr, et al. 1995; Zhongrin, et al. 2000). The rats were anesthetized with ketamine (100 mg/kg body weight) and decapitated and the hippocampi were dissected out and sliced into 400 um coronal sections by a McIllwain tissue chopper. Select slices with uninterrupted bright transparent neuronal layers were plated, 1-3 slices/filter, onto Millicell CM filters (Millipore, Bedford, Mass.). For the first 2 days in vitro (DIV) cultures were maintained in 25% horse serum, 50% Basal Media-Eagle (BEM), 25% Eagle's Balanced Salt Solution (EBSS), 25 mM HEPES, 1 mM glutamine, 28 mM glucose, pH 7.2, at 32° C. in a 5% CO2 humidified atmosphere. The slice cultures were then switched to 25% horse serum, 50% BEM and EBSS modified so that the potassium concentration was 2.66 mM, for another 5 DIV. After 7 DIV, the cultures were maintained in physiological potassium containing 5% horse serum medium at 35° C. for at least 20 days before any treatment was applied. When the slices were treated, the reagents were applied into the culture medium. At different time points, the slices collected with a brush were washed twice in homogenizing buffer (50 mM HEPES, pH 7.0, 10 mM β-merceptoethanol [BME], 1 mM EDTA, 1 mM EGTA, 0.1 mM phenylmethyl sulfonyl fluoride [PMSF], 2.0 mM benzamidine and 2.0 μg/ml each of aprotinin, leupeptin and pepstatin) and homogenized at 4° C. using a Teflon-glass homogenizer. The homogenate was then divided into two parts, one was centrifuged at 16000×g for 15 min and the supernatant was used to assay activities of PP-2A and PP-1. The rest of the homogenate was diluted 1:1 with a phosphatase inhibitor cocktail (20 mM β-glycerophosphate, 2 mM Na3VO4 and 100 mM NaF, pH 7.0) and either used for Western blots or centrifuged at 16000×g for 15 min and the resulting supernatant used to determine the kinase activities.
Activities of PP-2A and PP-1 were assayed towards [^32P] phosphorylase-a as a substrate as described previously (Gong, et al. 1994). The phosphatase activity was assayed in 20 μl of reaction mixture containing 50 mM Tris, pH 7.0, 10 mM BME, 0.1 mM EDTA, 7.5 mM caffeine, 7.5 ng/μl [^32P]phosphorylase-a and 0.06 mg/ml slice culture extract. The reaction was started by adding ^32P-phosphorylase-a. After incubation for 30 min at 30° C., 7 μl of the reaction mixture was spotted on to 31 ETCHR chromatography paper which had been prespotted with 10 μl stop solution (4 mM ATP+20% TCA). Then the ^32p released was separated from the protein-incorporated ^32P by paper chromatography in 5% TCA and 0.2 M NaCl, paper strips dried, cut and counted by Cerenkov radiation. A PP-1 specific inhibitor, inhibitor-1 (Hitken, et al. 1982) was included in the assays for PP-2A activity. PP-1 activity was calculated by subtracting the PP-2A activity from the total phosphorylase-a phosphatase activity (PP-1/PP-2A) assayed in the absence of inhibitor-1.

MAP2 = test: 125I-Western blots of MAP2 in slice homogenates; format: cell-based, rat
Procedure: (§1) Organotypic cultures of rat hippocampal slices were prepared from 20-30 day old Wistar rats and cultured with the interface method as described previously (Stoppini, et al. 1991; Bahr, et al. 1995; Zhongrin, et al. 2000). The rats were anesthetized with ketamine (100 mg/kg body weight) and decapitated and the hippocampi were dissected out and sliced into 400 um coronal sections by a McIllwain tissue chopper. Select slices with uninterrupted bright transparent neuronal layers were plated, 1-3 slices/filter, onto Millicell CM filters (Millipore, Bedford, Mass.). For the first 2 days in vitro (DIV) cultures were maintained in 25% horse serum, 50% Basal Media-Eagle (BEM), 25% Eagle's Balanced Salt Solution (EBSS), 25 mM HEPES, 1 mM glutamine, 28 mM glucose, pH 7.2, at 32° C. in a 5% CO2 humidified atmosphere. The slice cultures were then switched to 25% horse serum, 50% BEM and EBSS modified so that the potassium concentration was 2.66 mM, for another 5 DIV. […]
(§2) The phosphorylation of tau at Ser 262 and the levels of MAP2 and phosphorylated NF-H/M were assayed by ^125I-Western blots. […] Both immuno-dot-blots and Western blots were developed with ^125I-radiolabeled secondary antibodies and radioimmunoreactivity was visualized and quantitated using a phosphorimager (Fujifilm BAS-1500) and TINA 2.0 software (Raytest Isotopenmessgeräte GmbH)

NF-H/M = test: 125I-Western blots of phosphorylated NF-H/M in slice homogenates; format: cell-based, rat
Procedure: as §1, §2

[1] = test system: tau phosphorylated at Ser-262; test: Immunohistochemical staining of tau phosphorylated at Ser 262 in cultured hippocampal slices; format: cell-based, rat; conditions: 100 nM OA 24 h
Procedure: as §1
After different treatments some of the hippocampal slices were fixed in periodate/lysine/paraformaldehyde solution (Mclean, et al. 1974) at 33° C. for 5 h and then kept in 1% Triton-x-100 in PBS (pH 7.4) for 72 h at room temperature to improve the penetration of the antibodies. […] Peroxidase was detected using 0.05% diaminobenzidine (DAB) and H2O2 (0.01%) for 10 min.

T1 sequence (P63331 whole entry): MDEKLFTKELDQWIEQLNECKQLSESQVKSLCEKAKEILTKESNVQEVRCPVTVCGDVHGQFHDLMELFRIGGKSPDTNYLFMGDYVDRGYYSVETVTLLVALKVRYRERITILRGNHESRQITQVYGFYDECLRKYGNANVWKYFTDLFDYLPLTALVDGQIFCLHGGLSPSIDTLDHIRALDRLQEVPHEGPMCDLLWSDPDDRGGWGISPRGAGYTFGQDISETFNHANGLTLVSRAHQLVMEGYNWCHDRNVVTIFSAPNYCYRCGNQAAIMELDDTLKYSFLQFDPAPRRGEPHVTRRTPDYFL

For `CC12CC3CC(C)(C1)CC(N)(C3)C2` [Memantine, 1-amino-3,5-dimethyl adamantane], the “restoration of OA-inhibited PP-2A activity” value (PP-2A; 100 nM OA and 1, 10 or 30 μM Memantine, 3-48 h (FIG. 2a), p<0.02) was “restored the OA-inhibited PP-2A activity to normal level”, the “restoration of PP-2A activity” value (PP-2A; 100 nM OA plus 10 μM Memantine 24 h, or OA 24 h, wash, then Memantine 24 h) was “restored the PP-2A activity to normal level; also recorded: almost completely restored; also recorded: restored the activities of both PP-2A and CaMKII” and the “restoration of OA-inhibited PP-2A activity” value (PP-2A; 100 nM OA, 10 μM Memantine, 24 h) was “practically completely restored; also recorded: restored the OA-induced changes in the activities of PP-2A, CaMKII and PKA to normal levels”. The “restoration of OA-inhibited PP-2A activity” value (PP-2A; 5 μM compound) was “restoration”, the “additional effect on restoration of PP-2A activity” value (PP-2A; Memantine 10 to 30 μM, or 24 h to 48 h) was “Neither increase of Memantine from 10 μM to 30 μM nor duration of the treatment from 24 h to 48 h resulted in any significant additional effect” and the “concentration giving full effect on restoration of PP-2A activity” value (PP-2A; OA-treated slices) was 10 µM. For the same compound, the “lowest concentration at which restoration of PP-2A activity was observed” value (PP-2A; OA-treated slices) was 1 µM, the “effect on PP-2A activity” value (PP-2A; after 0.3 mM glutamate 1 h, 10 μM Memantine or 15 μM MK801) was “no effect” and the “effect on PP-2A activity in control (untreated) slices” value (PP-2A; no OA) was “no significant effect”. For the same compound, the MAP2 level (MAP2; OA then Memantine) was “reversal to normal levels; also recorded: increased the levels of MAP2”, the “phosphorylated NF-H/M level” value (NF-H/M; OA plus/then Memantine) was “reversed the OA-induced increase in phosphorylated NF-H/M; also recorded: reversal of phosphorylation and accumulation of NF-H/M subunits; also recorded: reversed the hyperphosphorylation of NF-H/M” and the “pS262 positive cells / p-Ser-262 immunostaining” value ([1]; then 10 μM Memantine 24 h) was “decreased dramatically; also recorded: markedly decreased; also recorded: restored in large part”.
For `C=C1[C@@H](O)[C@@H]2O[C@]3(CC[C@H](/C=C/[C@@H](C)[C@@H]4CC(C)=C[C@@]5(O[C@H](C[C@@](C)(O)C(=O)O)CC[C@H]5O)O4)O3)CC[C@H]2O[C@@H]1[C@@H](O)C[C@H](C)[C@H]1O[C@@]2(CCCCO2)CC[C@H]1C` [OA, Okadaic Acid], the “inhibition (decrease) of PP-2A activity” value (PP-2A; 100 nM OA, 24 h) was roughly 40%, the “inhibition (decrease) of PP-2A activity” value (PP-2A; 1000 nM (1 μM) OA, 48 h, 1 µM) was roughly 75% and the inhibition at 0.1 µM (PP-2A; read-out: inhibition (decrease) of PP-2A activity, 100 nM OA, 24 h) was 42%. The inhibition at 1 µM (PP-2A; read-out: inhibition (decrease) of PP-2A activity, 1000 nM (1 μM) OA, 48 h) was 78%, the inhibition at 0.01 µM (PP-2A; read-out: inhibition of PP-2A activity, 10 nM OA, 24 h) was roughly 20% and the inhibition at 1 µM (PP-2A; read-out: inhibition of PP-2A activity, 1 μM OA, 24 h) was roughly 65%. For the same compound, the MAP2 level (MAP2; OA-treated cultures) was “a decrease in MAP2”, the “phosphorylated NF-H/M level” value (NF-H/M; OA-treated cultures) was “increase in phosphorylated NF-H/M” and the “pS262 positive cells / p-Ser-262 staining” value ([1]; then medium 24 h) was “increased markedly; also recorded: marked increase”.
